According to PubChem BioAssay AID192 (DTP/NCI, 2004):
Several values for one entry are separate records, joined by “and”; a condition that tells them apart may be missing. Identical values can stand only once. Inconclusive results and toxic doses are left out.

System: BDF1 mice, B16 melanoma ip, median survival T/C
Experiment: NCI In Vivo Anticancer Drug Screen. Data for tumor model B16 Melanoma (intraperitoneal) in B6D2F1 (BDF1) mice
Settings: endpoint: median survival time, higher = longer survival
Summary of the method: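 In this screen, activity was judged from survival or tumor size in treated versus vehicle-treated tumor-bearing mice, reported as T/C.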

[1] = dose: 0.78 mg/kg/injection, schedule: Q01DX009 (ip), vehicle: saline
[2] = dose: 1.56 mg/kg/injection, schedule: Q01DX009 (ip), vehicle: saline
[3] = dose: 3.12 mg/kg/injection, schedule: Q01DX009 (ip), vehicle: saline
[4] = dose: 1.0 mg/kg/injection, schedule: Q01DX009 (ip), vehicle: saline
[5] = dose: 2.0 mg/kg/injection, schedule: Q01DX009 (ip), vehicle: saline
[6] = dose: 100.0 mg/kg/injection, schedule: Q01DX009 (ip), vehicle: saline
[7] = dose: 200.0 mg/kg/injection, schedule: Q01DX009 (ip), vehicle: saline
[8] = dose: 400.0 mg/kg/injection, schedule: Q01DX009 (ip), vehicle: saline
[9] = dose: 25.0 mg/kg/injection, schedule: Q01DX009 (ip), vehicle: saline with Tween-80
[10] = dose: 50.0 mg/kg/injection, schedule: Q01DX009 (ip), vehicle: saline with Tween-80
[11] = dose: 100.0 mg/kg/injection, schedule: Q01DX009 (ip), vehicle: saline with Tween-80
[12] = dose: 200.0 mg/kg/injection, schedule: Q01DX009 (ip), vehicle: saline with Tween-80
[13] = dose: 3.12 mg/kg/injection, schedule: Q01DX009 (ip), vehicle: Klucel (hydroxypropylcellulose) (HPC)
[14] = dose: 25.0 mg/kg/injection, schedule: Q01DX009 (ip), vehicle: Klucel (hydroxypropylcellulose) (HPC)
[15] = dose: 50.0 mg/kg/injection, schedule: Q01DX009 (ip), vehicle: Klucel (hydroxypropylcellulose) (HPC)
[16] = dose: 100.0 mg/kg/injection, schedule: Q01DX009 (ip), vehicle: Klucel (hydroxypropylcellulose) (HPC)
[17] = dose: 200.0 mg/kg/injection, schedule: Q01DX009 (ip), vehicle: Klucel (hydroxypropylcellulose) (HPC)
[18] = dose: 12.5 mg/kg/injection, schedule: Q01DX009 (ip), vehicle: saline with Tween-80
[19] = dose: 100.0 mg/kg/injection, schedule: Q04DX003 (ip), vehicle: Klucel (hydroxypropylcellulose) (HPC)
[20] = dose: 200.0 mg/kg/injection, schedule: Q04DX003 (ip), vehicle: Klucel (hydroxypropylcellulose) (HPC)
[21] = dose: 400.0 mg/kg/injection, schedule: Q04DX003 (ip), vehicle: Klucel (hydroxypropylcellulose) (HPC)
[22] = dose: 12.5 mg/kg/injection, schedule: Q01DX009 (ip), vehicle: Klucel (hydroxypropylcellulose) (HPC)

With COc1cccc2c1C(=O)c1c(O)c3c(c(O)c1C2=O)C[C@@](O)(C(=O)COC(=O)c1cccnc1)C[C@@H]3OC1CC(N)C(O)C(C)O1 (stereo not given in full) the T/C (dose: 0.19 mg/kg/injection, schedule: Q01DX001 (ip), vehicle: water) was 92 % of control, the T/C (dose: 0.38 mg/kg/injection, schedule: Q01DX001 (ip), vehicle: water) was 101 % of control and the T/C (dose: 0.75 mg/kg/injection, schedule: Q01DX001 (ip), vehicle: water) was 108 % of control. The T/C (dose: 3.0 mg/kg/injection, schedule: Q01DX001 (ip), vehicle: water) was 113 % of control and 239 % of control and 249 % of control, the T/C (dose: 6.0 mg/kg/injection, schedule: Q01DX001 (ip), vehicle: water) was 103 % of control and 250 % of control and 255 % of control and the T/C (dose: 12.0 mg/kg/injection, schedule: Q01DX001 (ip), vehicle: water) was 251 % of control and 323 % of control. The T/C (dose: 24.0 mg/kg/injection, schedule: Q01DX001 (ip), vehicle: water) was 325 % of control.
With CN(C)CC/C=C1\c2ccccc2Sc2ccc(C(F)(F)F)cc21 the T/C (dose: 0.19 mg/kg/injection, schedule: Q01DX009 (ip), vehicle: saline) was 105 % of control, the T/C (dose: 0.39 mg/kg/injection, schedule: Q01DX009 (ip), vehicle: saline) was 122 % of control and the T/C [1] was 111 % of control. For the same molecule, the T/C [2] was 108 % of control, the T/C [3] was 105 % of control and the T/C (dose: 6.12 mg/kg/injection, schedule: Q01DX009 (ip), vehicle: saline) was 90 % of control.
For CC(=O)OC1C(=O)C(O)C(C)OC1O[C@@H]1C[C@@]2(C)[C@@H]3CC=C4[C@@H](C[C@H](O)C(=O)C4(C)C)[C@]3(C)C(=O)C[C@]2(C)[C@H]1[C@@](C)(O)C(=O)/C=C/C(C)(C)O (stereo not given in full), the T/C [4] was 92 % of control and the T/C [5] was 92 % of control.
For Cc1cc(=O)[nH]o1, the T/C [6] was 106 % of control, the T/C [7] was 105 % of control and the T/C [8] was 99 % of control.
With CCOC(=O)N1CCc2nc3ccc(Cl)cc3cc21 the T/C [9] was 113 % of control, the T/C [10] was 111 % of control and the T/C [11] was 124 % of control. For the same molecule, the T/C [12] was 106 % of control.
O=C(Oc1ccc(Cl)cc1)c1ccc(Cl)cc1 was tested, and the T/C (dose: 75.0 mg/kg/injection, schedule: Q04DX003 (ip), vehicle: Klucel (hydroxypropylcellulose) (HPC)) was 100 % of control.
With CCC(C)C#N (stereo not given) the T/C (dose: 5.0 mg/kg/injection, schedule: Q01DX009 (ip), vehicle: saline) was 97 % of control, the T/C (dose: 10.0 mg/kg/injection, schedule: Q01DX009 (ip), vehicle: saline) was 95 % of control and the T/C (dose: 20.0 mg/kg/injection, schedule: Q01DX009 (ip), vehicle: saline) was 100 % of control.
With O=NN(CCCl)C(=O)Nc1ccc2c3c(cccc13)-c1ccccc1-2 the T/C (dose: 1.56 mg/kg/injection, schedule: Q01DX009 (ip), vehicle: Klucel (hydroxypropylcellulose) (HPC)) was 111 % of control, the T/C [13] was 124 % of control and the T/C [14] was 158 % of control and 175 % of control. The T/C [15] was 170 % of control, the T/C [16] was 150 % of control and the T/C [17] was 150 % of control.
In the case of COc1c2c([n+](C)c3c(OC)cccc13)OC(C(C)C)C2 (stereo not given), the T/C (dose: 0.25 mg/kg/injection, schedule: Q01DX009 (ip), vehicle: saline sonified) is reported as 102 % of control, the T/C (dose: 0.5 mg/kg/injection, schedule: Q01DX009 (ip), vehicle: saline sonified) is reported as 100 % of control and the T/C (dose: 0.75 mg/kg/injection, schedule: Q01DX009 (ip), vehicle: saline) is reported as 94 % of control. The T/C (dose: 1.0 mg/kg/injection, schedule: Q01DX009 (ip), vehicle: saline sonified) was 102 % of control, the T/C (dose: 1.5 mg/kg/injection, schedule: Q01DX009 (ip), vehicle: saline) was 88 % of control and the T/C (dose: 1.5 mg/kg/injection, schedule: Q04DX003 (ip), vehicle: saline) was 107 % of control. For the same molecule, the T/C (dose: 3.0 mg/kg/injection, schedule: Q04DX003 (ip), vehicle: saline) was 89 % of control.
Clc1ccc(C(c2ccc(Cl)cc2)C(Cl)(Cl)Cl)cc1 was tested, and the T/C (dose: 16.0 mg/kg/injection, schedule: Q01DX009 (ip), vehicle: Klucel (hydroxypropylcellulose) (HPC)) was 101 % of control and the T/C (dose: 32.0 mg/kg/injection, schedule: Q01DX009 (ip), vehicle: Klucel (hydroxypropylcellulose) (HPC)) was 92 % of control.
With O=[N+]([O-])/C(=C/c1ccccc1)c1ccccc1 the T/C (dose: 6.25 mg/kg/injection, schedule: Q01DX009 (ip), vehicle: saline with Tween-80) was 104 % of control, the T/C [18] was 95 % of control and the T/C [9] was 112 % of control.
For COc1ccc2c(c1)CN(S(=O)(=O)c1ccc(C)cc1)CCC2O (stereo not given), the T/C [19] was 96 % of control, the T/C [20] was 93 % of control and the T/C [21] was 95 % of control.
For C=NCC#N, the T/C [11] was 93 % of control, the T/C [12] was 88 % of control and the T/C (dose: 400.0 mg/kg/injection, schedule: Q01DX009 (ip), vehicle: saline with Tween-80) was 93 % of control.
With CCC1CN1P(=O)(N(CC)CC)N1CC1CC (stereo not given) the T/C [10] was 113 % of control and the T/C [11] was 117 % of control.
For NC(Cc1cc(Cl)c(O)c(Cl)c1)C(=O)O (stereo not given), the T/C [6] was 94 % of control, the T/C (dose: 150.0 mg/kg/injection, schedule: Q01DX009 (ip), vehicle: saline) was 100 % of control and the T/C [7] was 98 % of control.
For CN1CCC=C(C(=O)N2c3ccccc3CCc3ccccc32)C1, the T/C (dose: 25.0 mg/kg/injection, schedule: Q01DX009 (ip), vehicle: saline) was 97 % of control, the T/C (dose: 50.0 mg/kg/injection, schedule: Q01DX009 (ip), vehicle: saline) was 87 % of control and the T/C [6] was 91 % of control.
In the case of CCOC(Cl)CCl (stereo not given), the T/C [18] is reported as 97 % of control and the T/C [9] is reported as 102 % of control.
In the case of CCCCN(CCCC)CCNc1ccc(Cl)c2oc3cc(C)ccc3c(=O)c12, the T/C [18] is reported as 100 % of control, the T/C [9] is reported as 93 % of control and the T/C (dose: 25.0 mg/kg/injection, schedule: Q04DX003 (ip), vehicle: saline with Tween-80) is reported as 105 % of control. The T/C (dose: 50.0 mg/kg/injection, schedule: Q04DX003 (ip), vehicle: saline with Tween-80) was 92 % of control and the T/C (dose: 100.0 mg/kg/injection, schedule: Q04DX003 (ip), vehicle: saline with Tween-80) was 86 % of control.
For CC(=O)c1ccc2c(c1)N(CCCN1CCN(CCO)CC1)c1ccccc1S2, the T/C [1] was 98 % of control, the T/C [2] was 103 % of control and the T/C [3] was 97 % of control.
In the case of Cc1c(Cl)cccc1NS(=O)(=O)c1ccc(Cl)cc1, the T/C [14] is reported as 106 % of control, the T/C [15] is reported as 97 % of control and the T/C [16] is reported as 99 % of control.
CC(=O)N/C(=C/c1ccccc1)C(=O)O was tested, and the T/C [16] was 94 % of control, the T/C [19] was 93 % of control and the T/C [17] was 108 % of control. The T/C [20] was 86 % of control, the T/C (dose: 400.0 mg/kg/injection, schedule: Q01DX009 (ip), vehicle: Klucel (hydroxypropylcellulose) (HPC)) was 97 % of control and the T/C [21] was 90 % of control.
Clc1ccc2c(c1)/C(=C/c1cccnc1)c1cc(Cl)cc(Cl)c1-2 was tested, and the T/C [10] was 86 % of control.
CC(=O)CC(=O)NCc1cccc(C)n1 was tested, and the T/C [6] was 106 % of control, the T/C [7] was 111 % of control and the T/C [8] was 112 % of control.
For O=C1C(NCC(O)CO)=C(N2CC2)C(=O)C(NCC(O)CO)=C1N1CC1 (stereo not given), the T/C [4] was 95 % of control, the T/C [5] was 121 % of control and the T/C (dose: 4.0 mg/kg/injection, schedule: Q01DX009 (ip), vehicle: saline) was 123 % of control.
For NC(N)=NCCCOc1ccccc1, the T/C [13] was 102 % of control, the T/C (dose: 6.25 mg/kg/injection, schedule: Q01DX009 (ip), vehicle: Klucel (hydroxypropylcellulose) (HPC)) was 108 % of control and the T/C [22] was 113 % of control. The T/C [14] was 100 % of control and the T/C [15] was 100 % of control.
In the case of O=S(=O)(O)c1cc(O)c2ccccc2c1, the T/C [6] is reported as 107 % of control, the T/C [7] is reported as 100 % of control and the T/C [8] is reported as 102 % of control.
In the case of Cc1ccc(NC(=O)c2cccc(C(=O)Nc3ccc(C)cc3C)c2)c(C)c1, the T/C [22] is reported as 115 % of control, the T/C [14] is reported as 96 % of control and the T/C [15] is reported as 102 % of control.
